# Laboratory results reported in ChEMBL document CHEMBL1153994.
# How the values were obtained:
# [1] = test system: HEK293; assay: Selectivity for PLD1 in human Calu1 cells over GFP-labeled PLD2 in human HEK293 cells; assay type: cell-based
# [2] = molecular target: T1, Phospholipase D1 (Homo sapiens, UniProt Q13393); assay: Inhibition of PLD1 in human Calu1 cells; assay type: cell-based, Calu-1
# T1 sequence (Q13393 whole entry): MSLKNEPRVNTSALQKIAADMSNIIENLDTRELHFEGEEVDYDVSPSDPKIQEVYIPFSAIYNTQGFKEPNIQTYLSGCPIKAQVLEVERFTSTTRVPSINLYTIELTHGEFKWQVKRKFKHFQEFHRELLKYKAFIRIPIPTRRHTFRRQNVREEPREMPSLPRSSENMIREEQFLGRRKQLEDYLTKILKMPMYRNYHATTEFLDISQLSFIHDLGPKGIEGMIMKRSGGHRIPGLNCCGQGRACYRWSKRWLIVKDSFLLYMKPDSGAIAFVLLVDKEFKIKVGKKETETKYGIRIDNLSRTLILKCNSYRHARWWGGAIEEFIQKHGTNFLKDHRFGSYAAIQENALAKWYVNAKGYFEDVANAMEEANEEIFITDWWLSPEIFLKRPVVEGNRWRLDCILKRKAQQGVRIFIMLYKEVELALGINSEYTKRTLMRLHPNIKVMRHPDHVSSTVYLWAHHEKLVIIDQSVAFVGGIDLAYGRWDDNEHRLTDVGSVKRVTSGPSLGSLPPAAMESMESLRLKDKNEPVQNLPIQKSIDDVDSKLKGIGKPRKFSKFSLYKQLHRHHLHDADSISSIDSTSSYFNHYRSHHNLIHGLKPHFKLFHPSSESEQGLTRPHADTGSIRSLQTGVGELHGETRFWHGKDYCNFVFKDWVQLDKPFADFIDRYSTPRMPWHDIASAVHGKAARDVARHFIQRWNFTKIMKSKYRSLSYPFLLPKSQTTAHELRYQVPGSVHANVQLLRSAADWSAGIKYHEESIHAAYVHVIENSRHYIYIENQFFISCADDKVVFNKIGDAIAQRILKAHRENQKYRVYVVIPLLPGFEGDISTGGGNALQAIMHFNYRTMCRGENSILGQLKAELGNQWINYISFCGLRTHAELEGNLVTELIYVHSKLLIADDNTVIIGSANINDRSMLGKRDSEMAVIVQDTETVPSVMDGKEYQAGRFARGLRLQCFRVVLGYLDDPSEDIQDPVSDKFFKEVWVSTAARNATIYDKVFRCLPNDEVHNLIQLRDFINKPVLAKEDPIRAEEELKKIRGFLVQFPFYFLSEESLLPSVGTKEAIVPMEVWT
# [3] = molecular target: Phospholipase D2 (Homo sapiens, UniProt O14939); assay: Inhibition of GFP-labeled PLD2 in human HEK293 cells; assay type: cell-based
# Chain of Phospholipase D2 (O14939 whole entry): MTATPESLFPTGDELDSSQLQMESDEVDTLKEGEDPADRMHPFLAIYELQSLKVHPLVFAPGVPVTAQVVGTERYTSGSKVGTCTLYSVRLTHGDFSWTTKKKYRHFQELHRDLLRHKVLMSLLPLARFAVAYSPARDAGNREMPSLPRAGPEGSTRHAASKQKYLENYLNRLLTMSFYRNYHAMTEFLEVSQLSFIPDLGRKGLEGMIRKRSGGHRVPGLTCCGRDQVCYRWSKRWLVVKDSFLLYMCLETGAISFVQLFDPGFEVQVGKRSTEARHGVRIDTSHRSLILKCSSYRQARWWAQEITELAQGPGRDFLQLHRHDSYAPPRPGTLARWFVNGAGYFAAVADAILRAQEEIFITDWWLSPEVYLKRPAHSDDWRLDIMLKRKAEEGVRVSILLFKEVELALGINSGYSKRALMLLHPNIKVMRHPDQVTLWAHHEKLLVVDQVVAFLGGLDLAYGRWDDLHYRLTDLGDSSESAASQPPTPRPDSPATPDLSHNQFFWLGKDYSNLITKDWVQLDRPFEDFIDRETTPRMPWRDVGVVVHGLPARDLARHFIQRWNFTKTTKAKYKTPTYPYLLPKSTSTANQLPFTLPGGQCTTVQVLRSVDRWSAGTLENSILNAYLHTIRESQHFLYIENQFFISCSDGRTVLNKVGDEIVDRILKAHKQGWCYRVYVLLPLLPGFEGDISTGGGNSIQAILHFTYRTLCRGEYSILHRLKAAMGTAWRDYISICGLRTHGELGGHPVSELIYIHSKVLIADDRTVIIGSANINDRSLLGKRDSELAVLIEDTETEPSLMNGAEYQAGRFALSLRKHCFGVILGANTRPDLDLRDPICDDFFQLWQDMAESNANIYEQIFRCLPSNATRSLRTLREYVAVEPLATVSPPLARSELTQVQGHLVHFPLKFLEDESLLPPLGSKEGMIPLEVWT
SMILES,fold change (FC) [1],IC50 [2],IC50 [3]
O=C(NCCN1CCC2(CC1)C(=O)NCN2c1ccccc1)c1ccc2ccccc2c1,9,–,–
O=C(NCCN1CCC2(CC1)C(=O)NCN2c1ccccc1)c1cnc2ccccc2n1,–,> 20000 nM,> 20000 nM
O=C(NCCN1CCC2(CC1)C(=O)NCN2c1ccccc1)c1cc2ccccc2s1,–,150 nM,30 nM
O=C(NCCN1CCC2(CC1)C(=O)NCN2c1ccccc1)[C@H]1C[C@@H]1c1ccccc1 (relative stereo),–,> 20000 nM,> 20000 nM
COc1cc(C(=O)NCCN2CCC3(CC2)C(=O)NCN3c2ccccc2)ccc1N,–,5900 nM,550 nM
C[C@@H](CN1CCC2(CC1)C(=O)NCN2c1ccccc1)NC(=O)[C@H]1C[C@@H]1c1ccccc1,–,2600 nM,30000 nM
Cc1cccc(C(=O)N[C@@H](C)CN2CCC3(CC2)C(=O)NCN3c2ccccc2)c1,–,3400 nM,27000 nM
O=C(C#Cc1ccccc1)NCCN1CCC2(CC1)C(=O)NCN2c1ccccc1,–,2100 nM,1600 nM
C[C@@H](CN1CCC2(CC1)C(=O)NCN2c1ccccc1)NC(=O)c1ccc(F)c(F)c1,–,150 nM,200 nM
O=C(NCCN1CCC(n2c(=O)[nH]c3ccccc32)CC1)c1ccc2ccccc2c1,> 1700,–,–
